For 18 molecules, IC50 results are on record in patent US20230081426A1, “COMPOUNDS AND METHODS FOR KRAS MODULATION AND INDICATIONS THEREFOR” (Plexxikon Inc., priority 2020, published 2023).

Assay [1] addresses T1, G12V-mutant human KRAS (amino acid residues 1-188) (Homo sapiens, UniProt P01116, G12V).
T1 construct: G12V-mutant human KRAS (amino acid residues 1-188) with FLAG tag was purified from E. coli; made in house; host or cells: E. coli
Put plainly: KRAS Binding Competition Assay (AlphaScreen; biotinylated KRpep-2d analogue), G12V. As to conditions: geometric mean, read-out: KRAS GMean IC50 (uM) MUTATION: G12V. How it is done: Compound binding disrupts the interaction of KRpep-2d with KRAS, leading to a decrease in Alpha signal.
All assay components were prepared in 20 mM HEPES (pH 7.5), 100 mM NaCl, 5 mM MgCl2, 0.01% Tween-20, and 0.01% BSA. Biotinylated analogues of KRpep-2d were custom synthesized. The binding competition assays were performed using 10 nM of mutant KRAS and 10 nM of biotinylated KRpep-2d analogue. 19 μL of KRAS protein and 4 μL of biotinylated KRpep-2d were added to the wells of a 384-well plate containing 1 μL of various concentrations of test compound or DMSO vehicle. 16 wells containing KRAS, biotinylated KRpep-2d, and 5% DMSO served as high controls. 16 wells containing KRAS only and 5% DMSO served as low controls. Binding reactions were incubated for 1 hour at 25° C., then Anti-Flag Acceptor and Streptavidin Donor Alpha beads were added at a final concentration of 10 μg/mL for an additional hour at room temperature. Alpha signal was read out on a Perkin Elmer Envision HTS instrument. The percentage inhibition at individual compound concentrations relative to high and low controls was calculated. The data were analyzed by using nonlinear regression to generate IC50 values.

The target of assay [2] is T2, G12D-mutant human KRAS (amino acid residues 1-188) (Homo sapiens, UniProt P01116, G12D).
T2 construct: G12D or G12C-mutant human KRAS (amino acid residues 1-188) with FLAG tag; made in house; host or cells: E. coli
The assay can be described thus: KRAS Binding Disruption Assay (AlphaScreen; biotinylated KRpep-2d analogue or RAF1-RBD), G12D. Conditions: KRAS G12D; geometric mean; read-out: KRAS GMean IC50 (uM) MUTATION: G12D. In short, it runs like this: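 Compounds are titrated against 5-20 nM mutant KRAS and 5-20 nM of either a biotinylated KRpep-2d analogue or RAF1-RBD, incubated 1 h at 25° C. Disruption is detected as reduced Alpha signal after 1 h with donor and acceptor beads at 10 μg/mL.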

`Oc1cc(-c2ccc3c(N4C[C@H]5CC[C@@H](C4)N5)nc(OCC45CCCCN4CCCC5)nc3c2)c2ccccc2c1` [P-0095, 4-(4-((1R,5S)-3,8-diazabicyclo[3.2.1]octan-3-yl)-2-((octahydro-9aH-quinolizin-9a-yl)methoxy)quinazolin-7-yl)naphthalen-2-ol]: the IC50 in assay [1] lay within 10 to 100 µM; in assay [2] it was 0.0001 to 10 µM.
Taken in the same sequence, the figures for `O=C(NC1CCNC1)N1[C@@H]2CC[C@H]1CN(c1nc(OCC34CCCN3CCC4)nc3cc(-c4cc(O)cc5ccccc45)ccc13)C2` (stereo partly drawn) [P-0097, (1R,5S)-3-(7-(3-hydroxynaphthalen-1-yl)-2-((tetrahydro-1H-pyrrolizin-7a(5H)-yl)methoxy)quinazolin-4-yl)-N-(pyrrolidin-3-yl)-3,8-diazabicyclo[3.2.1]octane-8-carboxamide] were 0.0001 to 10 µM and 0.0001 to 10 µM.
With `O=C(OC1CCOC1)N1[C@@H]2CC[C@H]1CN(c1nc(OCC34CCCN3CCC4)nc3cc(-c4cc(O)cc5ccccc45)ccc13)C2` (stereo partly drawn) [P-0098, Tetrahydrofuran-3-yl (1R,5S)-3-(7-(3-hydroxynaphthalen-1-yl)-2-((tetrahydro-1H-pyrrolizin-7a(5H)-yl)methoxy)quinazolin-4-yl)-3,8-diazabicyclo[3.2.1]octane-8-carboxylate], the half-maximal inhibitory concentration (IC50) in assay [1] and in assay [2] was 0.0001 to 10 µM throughout.
With `Cc1ccc2[nH]ncc2c1-c1ccc2c(N3C[C@H]4CC[C@@H](C3)N4)nc(OCC34CCCN3CCC4)nc2c1F` [P-0101, 4-((1R,5S)-3,8-diazabicyclo[3.2.1]octan-3-yl)-8-fluoro-7-(5-methyl-1H-indazol-4-yl)-2-((tetrahydro-1H-pyrrolizin-7a(5H)-yl)methoxy)quinazoline], the IC50 in assay [1] fell in the range of 10 to 100 µM; in assay [2] it was 0.0001 to 10 µM.
Taken in the same sequence, the figures for `CN1CCC[C@H]1COc1nc(N2C[C@H]3CC[C@@H](C2)N3C(=O)CO)c2ccc(-c3cc(O)cc4ccccc34)c(F)c2n1` [P-0104, 1-((1R,5S)-3-(8-fluoro-7-(3-hydroxynaphthalen-1-yl)-2-(((S)-1-methylpyrrolidin-2-yl)methoxy)quinazolin-4-yl)-3,8-diazabicyclo[3.2.1]octan-8-yl)-2-hydroxyethan-1-one] were 0.0001 to 10 µM and 0.0001 to 10 µM.
Turning to `CN1CCC[C@H]1COc1nc(N2C[C@H]3CC[C@@H](C2)N3C(=O)CCS(N)(=O)=O)c2ccc(-c3cc(O)cc4ccccc34)c(F)c2n1` [P-0105, 3-((1R,5S)-3-(8-fluoro-7-(3-hydroxynaphthalen-1-yl)-2-(((S)-1-methylpyrrolidin-2-yl)methoxy)quinazolin-4-yl)-3,8-diazabicyclo[3.2.1]octan-8-yl)-3-oxopropane-1-sulfonamide], the IC50 in assay [1] and in assay [2] was 0.0001 to 10 µM throughout.
With `CN1CCC[C@H]1COc1nc(N2C[C@H]3CC[C@@H](C2)N3C(=O)c2n[nH]c(=O)[nH]2)c2ccc(-c3cc(O)cc4ccccc34)c(F)c2n1` [P-0107, 5-((1R,5S)-3-(8-fluoro-7-(3-hydroxynaphthalen-1-yl)-2-(((S)-1-methylpyrrolidin-2-yl)methoxy)quinazolin-4-yl)-3,8-diazabicyclo[3.2.1]octane-8-carbonyl)-2,4-dihydro-3H-1,2,4-triazol-3-one], the half-maximal inhibitory concentration (IC50) in assay [1] and in assay [2] was 0.0001 to 10 µM throughout.
With `O=C(c1c[nH]c(=O)[nH]c1=O)N1[C@@H]2CC[C@H]1CN(c1nc(OCC34CCCN3CCC4)nc3cc(-c4cc(O)cc5ccccc45)ccc13)C2` [P-0108, 5-((1R,5S)-3-(7-(3-hydroxynaphthalen-1-yl)-2-((tetrahydro-1H-pyrrolizin-7a(5H)-yl)methoxy)quinazolin-4-yl)-3,8-diazabicyclo[3.2.1]octane-8-carbonyl)pyrimidine-2,4(1H,3H)-dione], the IC50 in assay [1] and in assay [2] was 0.0001 to 10 µM throughout.
For the molecule `Cc1cc(C(=O)N2[C@@H]3CC[C@H]2CN(c2nc(OCC45CCCN4CCC5)nc4cc(-c5cc(O)cc6ccccc56)ccc24)C3)[nH]c(=O)n1` [P-0109, 6-((1R,5S)-3-(7-(3-hydroxynaphthalen-1-yl)-2-((tetrahydro-1H-pyrrolizin-7a(5H)-yl)methoxy)quinazolin-4-yl)-3,8-diazabicyclo[3.2.1]octane-8-carbonyl)-4-methylpyrimidin-2(1H)-one], the IC50 fell in the range of 10 to 100 µM in assay [1] and 0.0001 to 10 µM in assay [2].
Taken in the same sequence, the figures for `O=C([C@@H]1CCNC1)N1[C@@H]2CC[C@H]1CN(c1nc(OCC34CCCN3CCC4)nc3cc(-c4cc(O)cc5ccccc45)ccc13)C2` [P-0111, ((1R,5S)-3-(7-(3-hydroxynaphthalen-1-yl)-2-((tetrahydro-1H-pyrrolizin-7a(5H)-yl)methoxy)quinazolin-4-yl)-3,8-diazabicyclo[3.2.1]octan-8-yl)((R)-pyrrolidin-3-yl)methanone] were 0.0001 to 10 µM and 0.0001 to 10 µM.
Taken in the same sequence, the figures for `O=C([C@H]1CCNC1)N1[C@@H]2CC[C@H]1CN(c1nc(OCC34CCCN3CCC4)nc3cc(-c4cc(O)cc5ccccc45)ccc13)C2` [P-0112, ((1R,5S)-3-(7-(3-hydroxynaphthalen-1-yl)-2-((tetrahydro-1H-pyrrolizin-7a(5H)-yl)methoxy)quinazolin-4-yl)-3,8-diazabicyclo[3.2.1]octan-8-yl)((S)-pyrrolidin-3-yl)methanone] were 0.0001 to 10 µM and 0.0001 to 10 µM.
For `O=C(CN1[C@@H]2CC[C@H]1CN(c1nc(OCC34CCCN3CCC4)nc3cc(-c4cc(O)cc5ccccc45)ccc13)C2)C1CCNCC1` [P-0138, 2-((1R,5S)-3-(7-(3-hydroxynaphthalen-1-yl)-2-((tetrahydro-1H-pyrrolizin-7a(5H)-yl)methoxy)quinazolin-4-yl)-3,8-diazabicyclo[3.2.1]octan-8-yl)-1-(piperidin-4-yl)ethan-1-one], the IC50 in assay [1] and in assay [2] was 0.0001 to 10 µM each time.
With `COCCS(=O)(=O)N1[C@@H]2CC[C@H]1CN(c1nc(OCC34CCCN3CCC4)nc3cc(-c4cc(O)cc5ccccc45)ccc13)C2` [P-0139, 4-(4-((1R,5S)-8-((2-methoxyethyl)sulfonyl)-3,8-diazabicyclo[3.2.1]octan-3-yl)-2-((tetrahydro-1H-pyrrolizin-7a(5H)-yl)methoxy)quinazolin-7-yl)naphthalen-2-ol], the IC50 in assay [1] and in assay [2] was 10 to 100 µM each time.
On to `O=C(N[C@@H]1C[C@H]2CC[C@@H]1O2)N1[C@@H]2CC[C@H]1CN(c1nc(OCC34CCCN3CCC4)nc3cc(-c4cc(O)cc5ccccc45)ccc13)C2` [P-0140, (1R,5S)-N-((1S,2R,4R)-7-oxabicyclo[2.2.1]heptan-2-yl)-3-(7-(3-hydroxynaphthalen-1-yl)-2-((tetrahydro-1H-pyrrolizin-7a(5H)-yl)methoxy)quinazolin-4-yl)-3,8-diazabicyclo[3.2.1]octane-8-carboxamide], for which the IC50 in assay [1] and in assay [2] was 0.0001 to 10 µM throughout.
`CC(C)(O)CNC(=O)N1[C@@H]2CC[C@H]1CN(c1nc(OCC34CCCN3CCC4)nc3cc(-c4cc(O)cc5ccccc45)ccc13)C2` [P-0141, (1R,5S)-N-(2-hydroxy-2-methylpropyl)-3-(7-(3-hydroxynaphthalen-1-yl)-2-((tetrahydro-1H-pyrrolizin-7a(5H)-yl)methoxy)quinazolin-4-yl)-3,8-diazabicyclo[3.2.1]octane-8-carboxamide]: the IC50 in assay [1] and in assay [2] was 0.0001 to 10 µM each time.
As to `O=C(N[C@H]1CCCNC1)N1[C@@H]2CC[C@H]1CN(c1nc(OCC34CCCN3CCC4)nc3cc(-c4cc(O)cc5ccccc45)ccc13)C2` [P-0142, (1R,5S)-3-(7-(3-hydroxynaphthalen-1-yl)-2-((tetrahydro-1H-pyrrolizin-7a(5H)-yl)methoxy)quinazolin-4-yl)-N-((S)-piperidin-3-yl)-3,8-diazabicyclo[3.2.1]octane-8-carboxamide], the IC50 in assay [1] and in assay [2] was 0.0001 to 10 µM each time.
For the molecule `O=C(N[C@@H]1CCCNC1)N1[C@@H]2CC[C@H]1CN(c1nc(OCC34CCCN3CCC4)nc3cc(-c4cc(O)cc5ccccc45)ccc13)C2` [P-0143, (1R,5S)-3-(7-(3-hydroxynaphthalen-1-yl)-2-((tetrahydro-1H-pyrrolizin-7a(5H)-yl)methoxy)quinazolin-4-yl)-N-((R)-piperidin-3-yl)-3,8-diazabicyclo[3.2.1]octane-8-carboxamide], the IC50 in assay [1] and in assay [2] was 0.0001 to 10 µM each time.
`CN1CCC[C@H]1COc1nc(N2C[C@H]3CC[C@@H](C2)N3CC(N)=O)c2ccc(-c3cc(O)cc4ccccc34)c(F)c2n1` [P-0144, 2-((1R,5S)-3-(8-fluoro-7-(3-hydroxynaphthalen-1-yl)-2-(((S)-1-methylpyrrolidin-2-yl)methoxy)quinazolin-4-yl)-3,8-diazabicyclo[3.2.1]octan-8-yl)acetamide]: the IC50 in assay [1] and in assay [2] was 0.0001 to 10 µM in each case.
